Experiment [1] has as its system gel-filtered platelets. The experiment is described as follows: Inhibition of SFLLRN-NH2-induced gel-filtered platelet aggregation. It counts as cell-based. The following applies: aggregation initiated by SFLLRN-NH2 (2 μM), OD 650 at 0 and 5 min. As to the method: (§1) In Vitro Inhibition Of Thrombin- and SFLLRN-NH2-Induced Gel-Filtered Platelet Aggregation Assay
(§2) Platelet Rich Plasma concentrate (Biological Specialties, Inc) is gel filtered (Sepharose 2B, Pharmacia) in Tyrode's buffer (140 mM NaCl, 2.7 mM KCl, 12 mM NaHCO3, 0.76 mM Na2HPO4, 5.5 mM dextrose, 5.0 mM Hepes, and 2 mg/ml BSA @ pH 7.4). The gel-filtered platelets are diluted with Tyrode's buffer (143,000 platelets/μl, final platelet count per well), compound solution in buffer, and 2 mM CaCl2 in a 96 well plate. Platelet aggregation is initiated by the addition of human α-thrombin (American Diagnostica, 0.113 nM-0.187 nM) or SFLLRN-NH2 (2 μM) shown to achieve 80% aggregation (0.015-0.025 NIH U/ml, 0.113 nM-0.187 nM). The assay plate is stirred constantly. Platelet aggregation is monitored by intermittently placing the plate in a microplate reader (Molecular Devices) to read optical density ([…], ΔSOFT) at 0 and 5 minutes after the thrombin addition. Aggregation was calculated to be the decrease in optical density between the time 0 and 5 minute measurements. All samples were tested in duplicate wells on the same plate.

The subject of experiment [2] is gel-filtered platelets. The experiment is described as follows: Inhibition of thrombin-induced gel-filtered platelet aggregation. The class given is cell-based. As to conditions: aggregation initiated by human α-thrombin 0.113 nM-0.187 nM, OD 650 at 0 and 5 min. Here is the method:
as §1, §2
(§3) Table 3 contains IC50 values (μM) of the compounds against platelet aggregation stimulated by thrombin and IC50 values (μM) in a thrombin receptor (PAR-1) binding assay.

The target in experiment [3] is T1, thrombin receptor (PAR-1) (Homo sapiens, UniProt P25116).
T1 construct: CHRF membranes (Jones, Biochim. Biophys. Acta 1992, 1136, 272) are thawed from −70° C; endogenous in cells; host or cells: CHRF cell membranes (CHRF-288 megakaryoblastic line, per the cited Jones 1992)
T1 sequence (P25116 22-425): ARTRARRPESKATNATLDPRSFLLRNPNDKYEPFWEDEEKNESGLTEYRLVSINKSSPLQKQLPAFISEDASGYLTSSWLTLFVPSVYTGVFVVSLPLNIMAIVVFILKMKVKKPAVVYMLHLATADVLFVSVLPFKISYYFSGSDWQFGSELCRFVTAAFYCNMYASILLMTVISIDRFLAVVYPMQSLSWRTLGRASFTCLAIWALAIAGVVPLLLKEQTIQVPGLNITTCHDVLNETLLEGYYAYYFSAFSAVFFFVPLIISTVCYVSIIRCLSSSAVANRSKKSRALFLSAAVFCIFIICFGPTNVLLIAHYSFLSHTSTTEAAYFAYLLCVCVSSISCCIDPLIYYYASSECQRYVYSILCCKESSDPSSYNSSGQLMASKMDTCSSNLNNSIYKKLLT
The experiment is described as follows: In vitro thrombin receptor binding assay (CHRF membranes). The following applies: tritiated 721-40 (Ser-pFPhe-Har-Leu-Har-Lys-Tyr-NH2), 30 min incubation. As to the method:
In Vitro Thrombin Receptor Binding Assay
CHRF membranes (Jones, Biochim. Biophys. Acta 1992, 1136, 272) are thawed from −70° C., centrifuged at maximum speed for 5 min, washed twice with binding buffer (50 mM HEPES containing 5 mM MgCl2 and 0.1% BSA), and re-suspended in binding buffer ([…]). 100 μL of membranes are added to the 24-Wallac plates and delivered to the Tomtech apparatus. In a typical experiment, 6 μL of samples (from a 125 μg/mL intermediary plate, 20% DMSO) and 44 μL buffer are delivered to the plates (final conc. of compounds is 3.7 μg/mL, 0.6% DMSO). Similarly, 6 μL 20% DMSO and 44 μL buffer are delivered to both column 1 (NSB) and column 12 (TB). 10 μL Ser-pFPhe-Har-Leu-Har-Lys-Tyr-NH2 (721-40; 500 μM in deionized water) is added to column 1. 50 μL tritiated 721-40 (specific activity 46 Ci/mmol) is added to all the wells. The plates are mixed well for 20 seconds, incubated for 30 min, and then harvested with 10 mM HEPES/138 mM NaCl using the Skatron harvester. The filters (GF/C Brandel FPXLR 296) are presoaked 3 h in 0.5% polyethylenimine in HEPES/0.1M N-acetylglucosamine) are set in saran wrap and dried for 3 min in the microwave, and placed in sample bags (Wallac 1450-432). 4.5 mL scintillation fluid (Wallac, Betaplate Scint 1205-440) is added. The bags are sealed, placed in filter cassettes (Wallac 1450-104), and analyzed on the microbeta counter.
as §3

As usually defined, the IC50 is the midpoint of a concentration-inhibition curve. Read a high IC50 as weaker potency in that assay.

For `CCCNCc1cn(Cc2ccc(F)cc2)c2ccc(NC(=O)[C@@H](Cc3ccccc3)NC(=O)[C@@H](CCCNC(=N)N)NC(=O)OC3c4ccccc4-c4ccccc43)cc12` [Compound 1], the concentration for half-maximal inhibition (IC50) in the experiment on gel-filtered platelets [1] (Platelet) worked out at 43.7 µM; in the experiment with gel-filtered platelets [2] (Platelet), 51.6 µM.

In the case of `N=C(N)NCCCC(NC(=O)Cc1ccccc1)C(=O)NC(Cc1ccccc1)C(=O)Nc1ccc2c(c1)c(CN1CCCC1)cn2Cc1ccc(F)cc1` (centres unmarked) [Compound 17, 5-Guanidino-2-phenylacetylamino-pentanoic acid {1-[1-(4-fluoro-benzyl)-3-pyrrolidin-1-ylmethyl-1H-indol-5-ylcarbamoyl]-2-phenyl-ethyl}-amide], the 50% inhibitory concentration (IC50) in experiment [3] was 10.4 µM; in the experiment on gel-filtered platelets [1] it was 9.8 µM; in the experiment with gel-filtered platelets [2], 44.5 µM.

For `N=C(N)NCCC[C@H](NC(=O)OCc1ccccc1)C(=O)N[C@@H](Cc1ccccc1)C(=O)Nc1ccc2c(CN3CCCC3)cn(Cc3ccc(F)cc3)c2c1` [Compound 19], the IC50 in experiment [3] came to 2.4 µM; in the experiment with gel-filtered platelets [1] (Platelet) it was 11.1 µM; in the experiment with gel-filtered platelets [2] (Platelet), 18.7 µM.

`CC(=O)N[C@@H](CCCNC(=N)N)C(=O)N[C@@H](CC1CCCCC1)C(=O)Nc1ccc2c(CN3CCCC3)cn(Cc3ccc(F)cc3)c2c1` [Compound 21]: the IC50 in experiment [3] came to 10.7 µM; in the experiment with gel-filtered platelets [1] (Platelet), 3.2 µM; in the experiment with gel-filtered platelets [2] (Platelet), 4.7 µM.

(Values after patent US7618945B2, “Heteroaryl peptidomimetics as thrombin receptor antagonists” (Janssen Pharmaceutica, N.V., priority 2002, dated 2009).)
